Where a SMILES comes first, the peptide text is derived from it. Bridges are numbered along the chain shown (N, C = ends). [ ]: non-standard residue; d: D form. hArg = N=C(N)NCCCC[C@H](N)C(=O)O; Mpa = O=C(O)CCS
How the values were obtained:
preformed thrombi = assay: Stability / reversal of preformed thrombi, blood perfused over collagen surface under arterial shear rates; assay type: cell-based, human
Protocol: Images are recorded at a frequency of 1 Hz.
Such assays can be used to detect antithrombotic activity of drugs that will target known effectors of thrombus stability reported in animal models of thrombosis (CD40L, Gas6, SLAM, SAP, Ephrin).

[1] = system: thrombi on type III collagen-coated capillaries; assay: End-point perfusion chamber assay: effect of anticoagulants on antithrombotic activity of a P2Y12 antagonist; assay type: cell-based, human; settings: 4 minutes at 1000/sec
Protocol: Several anticoagulants have been studied for their effects on the antithrombotic activity of a proprietary direct P2Y12 antagonist in the perfusion chamber assay. Whole blood was perfused over type III collagen-coated capillaries for 4 minutes at 1000/sec. At the end of the experiment, thrombotic deposits were rinsed, fixed and stained with toluidine blue for measurement of thrombus size. […] FIG. 10B represents the mean grey level (MGL) of the thrombi present in the area of observation located at 8 mm from the proximal part of the capillary. Corresponding thrombus volume was determined using the graph presented on FIG. 10C. Nonanticoagulated or Factor Xa anticoagulated human blood was perfused through type III collagen-coated capillary chambers (Vitrocom, glass rectangular capillaries 0.2 by 2 mm section) at […] for 4 minutes. After staining of the thrombotic deposits with toluidine blue for 45 seconds, an En Face picture located 8 mm downstream of the proximal part of the capillary was taken. Measurement of the gray level of each thrombus or platelets located in a window 400 μm long×250 μm wide was performed, and results are expressed as mean ±SEM using the Simple PCI software (Compix Inc Imaging System). Measurement of the mean thrombus volume (μm^3/μm^2) was performed at the same location on cross sections of the thrombotic deposits after epon embedding as described by Andre et al. (2003) Circulation 108, 2697-2703. Mean thrombus volume was expressed by use of Simple PCI software and plotted against the corresponding mean grey level. By using data from human in vitro (by titrating with the GPIIb/IIIa antagonist eptifibatide) experiments, a thrombotic profile (FIG. 10C) that was then used for a rapid measurement of the thrombus volume in subsequent experiments Was established

[2] = system: thrombotic process triggered by type III collagen; settings: 1000/sec
Protocol: The methodology and device described herein allows the monitoring in real time of the deposition of fluorescently labeled platelets into a transparent perfusion chamber (FIG. 11). The thrombosis profiler consists of a custom built epifluorescence microscope to monitor thrombus formation and a syringe pump to establish the desired flow and wall shear rate in the capillary perfusion chamber. A thermostatic sample compartment maintains the blood sample at a temperature of 37° C. Platelets are labeled by adding an aliquot of Rhodamine 6G (final concentration 1.25 μg/ml) to whole blood. […] Excitation and emission light are filtered with a set of fluorescence filters (31002, Chroma Technologies, Rockingham, Vt.). […] Images are recorded at a frequency of 1 Hz. […]
A software/algorithm has been developed in order to obtain a more representative read out of the thrombus formation over time. […] Since the use of antithrombotic drugs can increase platelet adhesion, thrombus size was represented as the measurement of the fluorescence intensity divided by total area (FIG. 12). […] Once the threshold is determined, pixels with values lower than the threshold are classified as background and pixels with values greater than the threshold are marked as foreground. […]

platelets = assay: Whole blood treated with GPIIb/IIIa antagonist perfused over collagen surface: monolayer of adhering platelets; assay type: cell-based; settings: therapeutic dose 2-3 uM
Text: P-selectin is responsible for the recruitment of leukocytes on activated/inflamed vessel wall and at sites of platelet deposition. It is known that leukocyte recruitment under these conditions will contribute to atherosclerotic plaque progression. Therefore monitoring the number of leukocyte rolling on adhering platelets could help define people at risk to develop future atherothrombotic events (number of leukocyte recruited as a predictor of future clinical events). Whole blood treated with a GPIIb/IIIa antagonist (e.g. Integrilin at the therapeutic dose 2-3 uM) and perfused over a collagen surface generate a monolayer of adhering platelets. […] Two to three minutes after the start of the perfusion at arterial shear rates of about ˜600/sec, leukocytes stained with rhodamine 6G are being recruited and roll over the adhering platelets. Antithrombotic agents (or agents targeting the P-selectin/PSGL-1 pathway) that will reduce the amount of leukocyte rolling on adhering platelets will therefore potentially reduce the risks of atherothrombotic events.

thrombus size = assay: Sequential study of thrombotic profile of 20 healthy volunteers on clopidogrel, aspirin and their combination; assay type: in vivo, human; settings: clopidogrel 75 mg/day, aspirin 325 mg/day
thrombus destabilization = settings: two 300 mg loading doses of plavix and daily aspirin
[3] = system: thrombotic process on collagen+tissue factor coated matrix; assay: Non-anticoagulated blood perfused over fibrillar collagen plus tissue factor matrix; assay type: cell-based; settings: therapeutic dose; arterial shear rates
Text: In this method, the thrombotic process can be evaluated with non-anticoagulated samples of blood. Non-anticoagulated samples of blood perfused over a thrombogenic matrix made of fibrillar collagen plus tissue factor generate thrombotic process under both venous and arterial shear rates that is sensitive to the action of different anticoagulants. In FIG. 22, the thrombotic profile, is inhibited by the therapeutic dose of enoxaparin and a factor Xa inhibitor indicating this system can be used to detect the activity of anticoagulants under arterial shear rates. Similarly, this method can be used to detect both platelet and fibrin deposition under venous shear rate conditions using for example fluorescently labeled antibodies directed against fibrin.

## CSc1nc(N)c2ncn([C@@H]3O[C@H](COP(=O)(O)O)[C@@H](O)[C@H]3O)c2n1 [2MeSAMP]
Preformed thrombi
  mechanism of effect on thrombosis (thrombus stability): affect thrombosis via a mechanism targeting the thrombus stability
Preformed thrombi; 100 uM
  destabilization / reversal of preformed thrombi: induces the destabilization of preformed thrombi
Preformed thrombi; 2MeSAMP at 100 uM, aspirin present
  extent of the reversal phenomenon in presence of aspirin: increased in presence of aspirin

## O=C(O)CC(O)(CC(=O)O)C(=O)O [Citrate]
[1]
  effect of the anticoagulant on the antithrombotic activity of a P2Y12 antagonist: artificially increased the antithrombotic effects of P2Y12 antagonist

## CCCCCNC(=O)c1coc([C@H]2[C@@H](Cc3ccccc3CCC(=O)O)[C@@H]3CC[C@H]2O3)n1 [Ifetroban]
Preformed thrombi
  mechanism of effect on thrombosis (thrombus stability): affect thrombosis via a mechanism targeting the thrombus stability
Preformed thrombi; 300 nM and 1 uM
  stability of preformed thrombi: significantly altered their stability

## N=C(N)NCCCC[C@@H]1NC(=O)CCSSC[C@@H](C(N)=O)NC(=O)[C@@H]2CCCN2C(=O)[C@H](Cc2c[nH]c3ccccc23)NC(=O)[C@H](CC(=O)O)NC(=O)CNC1=O [Integrilin] ([Mpa][hArg]GDWPC-NH2; disulfide 1-7)
[2]; Factor Xa-anticoagulated blood
  concentration reaching maximum level of inhibition (therapeutic dose): 2 µM
[2]; increasing concentrations spiked into Factor Xa-anticoagulated blood
  inhibition of the thrombotic process: dose-dependently inhibited the thrombotic process
platelets
  platelet activation: platelet activation is not affected
  thrombus formation: thrombus formation is abrogated

## CNc1ncnc2c1ncn2[C@H]1C[C@H](OP(=O)(O)O)[C@@H](COP(=O)(O)O)O1 [MRS2179]
Preformed thrombi; 100 uM
  destabilization / reversal of preformed thrombi: did not induced thrombus reversal
Preformed thrombi; 100 uM, added to preformed thrombi
  slope of thrombus growth: reduced the slope of thrombus growth

## NC(N)=NCCC[C@H](NC(=O)[C@@H]1CCCN1C(=O)[C@H](N)Cc1ccccc1)C(=O)CCl [PPACK]
[1]
  effect of the anticoagulant on the antithrombotic activity of a P2Y12 antagonist: artificially increased the antithrombotic effects of P2Y12 antagonist

## CC(=O)Oc1ccccc1C(=O)O [aspirin]
Thrombus size
  healthy individuals that did not respond to monotherapy: 5 out of 20
Preformed thrombi
  mechanism of effect on thrombosis (thrombus stability): affect thrombosis via a mechanism targeting the thrombus stability

## COC(=O)[C@H](c1ccccc1Cl)N1CCc2sccc2C1 [clopidogrel]
Thrombus size
  healthy individuals that did not respond to monotherapy: 4 out of 20
Preformed thrombi
  mechanism of effect on thrombosis (thrombus stability): affect thrombosis via a mechanism targeting the thrombus stability
Thrombus destabilization
  antithrombotic protection in type II diabetic patient: lack of protection

## enoxaparin
[3]
  thrombotic profile: inhibited

## hirudin
[1]
  effect of the anticoagulant on the antithrombotic activity of a P2Y12 antagonist: least impact on the antithrombotic activity of P2Y12 antagonist

— US20060211071A1, “Device for aggregating, imaging and analyzing thrombi and a method of use” (Millennium Pharmaceuticals, Inc., priority 2004, published 2006)
